Data published in patent US9274101B2 (BIOLOG, Inc., priority 2001, dated 2016).
In brackets after ≈: the same amount, converted by molar mass.

Experiments:
[1] = tested on: Staphylococcus aureus (ATCC #29213); experiment: MIC determination in MICROPLATE testing plates, saline vs GELRITE inoculant; format: cell-based; conditions: ATCC29213, 18 h, SF-P plates with resazurin, 35° C.
Experimental: All three antimicrobials were obtained from Sigma. […] Kanamycin and tetracycline were dissolved in sterile water.

E. coli MG1655 = experiment: PM kinetic profiles of antimicrobials, S-O-R scoring and dendrogram; format: cell-based, Escherichia coli; conditions: 1× level of each antimicrobial, 7 PMs, 48 hours
[2] = tested on: Escherichia coli (ATCC#25922); conditions: cited from earlier work
[3] = tested on: Staphylococcus aureus (ATCC #29213); conditions: cited from earlier work
HL-60 cells [4] = experiment: Effect of 1 mM chloramphenicol on HL-60 energy utilization; format: cell-based, human; conditions: 1 mM chloramphenicol
Experimental: In this Example, methods for testing antimicrobial-induced modulation in growth of a cell are described. The antimicrobial selected for this Example is chloramphenicol. However, this application is not intended to be limited to the use of chloramphenicol, translation inhibitors or even antibiotics. HL-60 cells were cultured as described in Example 27.
After washing, HL-60 cells were resuspended in DME-R. An aliquot of the cell suspension was counted by trypan blue exclusion and the cell density was adjusted to 6.67×10^5[…]. Fifty μL of DME-R containing 3 mM chloramphenicol were added to each well of the appropriate number of half area, 96-well plates, followed by 25 μL of the appropriate dilution of each test energy source. Stocks of 133 mM of each test chemical were prepared in tissue culture grade water, sterile filtered, and dilutions were prepared in a master plate so that, upon dilution in a total volume of 150 μL, the final concentrations would be 0.033 to 20 mM. Negative control wells received 25 μL of tissue culture grade water. The cells were plated at a volume of 75 μL/well, giving a final cell density of 5×10^4/well. For each plate containing energy sources and cells, a second, control plate containing only energy sources was prepared. Plates were incubated at 5% CO2, 90-100% humidity, and 37° C. for 24 hours prior to addition of the MTS/MPMS colorimetric reagent (7.5 μL/well). The color formed in each well 24 hours after addition of the colorimetric reagent, was measured with a plate reader at 490 nm with a reference wavelength of 650 nm. OD values from the control plate were subtracted from the OD values obtained with cells prior to normalizing the data to % negative control.
Data shown in Table 25 are expressed as percent negative control without chloramphenicol. […] Chloramphenicol clearly has a different effect on the cells than citrate shown in Example 33.

HL-60 cells [5] = experiment: Chloramphenicol IC50 for cells in complete medium; format: cell-based; conditions: Homo sapiens, read-out: IC50 concentration
E. coli (MG1655) = experiment: Sensitivity in ES1, ES2, ES3 MICROPLATE panels in the presence of vancomycin or sulfamethoxazole (synergy/antagonism); format: cell-based, Escherichia coli
[6] = tested on: vancomycin-intermediate S. aureus isolates (VISA); conditions: cited from earlier work

Row | MIC ([1]; diluent GELRITE (0.4%)) [µg/mL] | MIC ([1]; diluent Saline) [µg/mL] | IC50 (HL-60 cells [5]) [µM] | Structure (SMILES) | position in dendrogram of PM response profiles (FIG. 9) (E. coli MG1655) | MIC, NCCLS Expected Result [2] [µg/mL] | MIC, NCCLS Expected Results [3] [µg/mL] | effect on signal compared to untreated cells (HL-60 cells [4]) | change of sensitivity to the panel compound (E. coli (MG1655)) | minimum inhibitory concentration [MIC] [6] [µg/mL]
1 | 1 to 2 (≈ 2.86 to 5.72 µM) | 1 to 4 (≈ 2.86 to 11.4 µM) |  | CC1(C)S[C@@H]2[C@H](NC(=O)[C@H](N)c3ccccc3)C(=O)N2[C@H]1C(=O)O [Ampicillin, ampicillin] | cluster | 2 to 8 | 0.25 to 1 |  |  | 
2 |  |  | 1000 | O=C(N[C@H](CO)[C@H](O)c1ccc([N+](=O)[O-])cc1)C(Cl)Cl [chloramphenicol] | cluster |  |  | severe reduction in signal in almost all conditions |  | 
3 |  |  |  | CN[C@H](CC(C)C)C(=O)N[C@H]1C(=O)N[C@@H](CC(N)=O)C(=O)N[C@H]2C(=O)N[C@H]3C(=O)N[C@H](C(=O)N[C@H](C(=O)O)c4cc(O)cc(O)c4-c4cc3ccc4O)[C@H](O)c3ccc(c(Cl)c3)Oc3cc2cc(c3O[C@@H]2O[C@H](CO)[C@@H](O)[C@H](O)[C@H]2O[C@H]2C[C@](C)(N)[C@H](O)[C@H](C)O2)Oc2ccc(cc2Cl)[C@H]1O [vancomycin] |  |  |  |  | transient increased sensitivity | 8 to 16
